According to ChEMBL document CHEMBL4190283, “Pharmacological characterization and binding modes of novel racemic and optically active phenylalanine-based antagonists of AMPA receptors” (Eur J Med Chem, 2017):
Active and inactive are the calls of the source. The calls are words filed in the database; no cut-off is given here.

Key:
Glutamate receptor 2 [1] = biological target: T1, Glutamate receptor 2 (Rattus norvegicus, UniProt P19491); experiment: Displacement of [3H]AMPA from rat GluA2(R) receptor flip isoform expressed in sf9 insect cell membranes by TopCount method
Glutamate receptor 3 = Glutamate receptor 3 (Rattus norvegicus, UniProt P19492); experiment: Displacement of [3H]AMPA from rat GluA3 receptor flip isoform expressed in sf9 insect cell membranes by TopCount method
[2] = biological target: Glutamate receptor 2 (Rattus norvegicus) (UniProt P19491); experiment: Antagonist activity at rat GluA2(Q) receptor flop isoform expressed in Xenopus laevis oocytes assessed as inhibition of (S)-glutamate-induced channel activation by two electrode voltage clamp method; format: cell-based
Rattus norvegicus = species on record: Rattus norvegicus; experiment: Selectivity ratio of Ki for rat GluA3 receptor flip isoform expressed in sf9 insect cell membranes to Ki for rat GluA2(R) receptor flip isoform expressed in sf9 insect cell membranes
[3] = biological target: Glutamate receptor 2 (Rattus norvegicus) (UniProt P19491); experiment: Agonist activity at rat GluA2(Q) receptor flop isoform expressed in Xenopus laevis oocytes at 300 uM by two electrode voltage clamp method; format: cell-based
Glutamate receptor 2 [4] = biological target: T1, Glutamate receptor 2; experiment: Displacement of [3H]AMPA from rat GluA2(Q) receptor flop isoform by TopCount method
[5] = Displacement of [3H]KA from KA receptor in rat brain membranes by scintillation counting method; format: cell membranes, Membrane
[6] = Displacement of [3H]AMPA from AMPA receptor in rat brain membranes by scintillation counting method; format: cell membranes, Membrane
Glutamate NMDA receptor = experiment: Displacement of [3H]CGP39653 from NMDA receptor in rat brain membranes by scintillation counting method; format: cell membranes, Membrane
[7] = Displacement of [3H]AMPA from AMPA receptor in rat brain membranes; format: cell membranes, Membrane

T1 sequence (P19491 whole entry, canonical isoform): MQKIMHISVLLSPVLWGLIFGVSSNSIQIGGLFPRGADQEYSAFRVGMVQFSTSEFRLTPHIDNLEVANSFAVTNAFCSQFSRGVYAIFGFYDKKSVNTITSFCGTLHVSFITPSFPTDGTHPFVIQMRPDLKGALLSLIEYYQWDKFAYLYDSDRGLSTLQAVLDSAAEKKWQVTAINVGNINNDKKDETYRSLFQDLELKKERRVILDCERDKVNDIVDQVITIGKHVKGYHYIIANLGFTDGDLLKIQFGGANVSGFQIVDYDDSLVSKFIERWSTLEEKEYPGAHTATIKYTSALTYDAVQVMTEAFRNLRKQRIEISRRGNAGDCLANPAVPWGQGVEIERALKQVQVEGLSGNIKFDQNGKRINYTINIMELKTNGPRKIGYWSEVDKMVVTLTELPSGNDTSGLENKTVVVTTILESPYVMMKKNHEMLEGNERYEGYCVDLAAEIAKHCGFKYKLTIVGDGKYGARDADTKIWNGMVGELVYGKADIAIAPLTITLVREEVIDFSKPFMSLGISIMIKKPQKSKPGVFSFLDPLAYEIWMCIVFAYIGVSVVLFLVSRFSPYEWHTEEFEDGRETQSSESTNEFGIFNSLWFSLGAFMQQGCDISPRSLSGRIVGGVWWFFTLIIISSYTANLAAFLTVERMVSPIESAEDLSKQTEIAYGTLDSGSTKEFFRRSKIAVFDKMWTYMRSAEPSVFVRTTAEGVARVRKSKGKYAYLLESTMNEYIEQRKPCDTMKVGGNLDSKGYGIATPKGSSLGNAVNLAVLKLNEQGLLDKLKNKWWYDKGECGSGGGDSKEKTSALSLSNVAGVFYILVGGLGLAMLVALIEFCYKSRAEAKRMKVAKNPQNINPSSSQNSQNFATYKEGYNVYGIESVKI
Chain of Glutamate receptor 2 (Rattus norvegicus) (P19491 whole entry, canonical isoform): as above
Chain of Glutamate receptor 3 (P19492 whole entry, canonical isoform): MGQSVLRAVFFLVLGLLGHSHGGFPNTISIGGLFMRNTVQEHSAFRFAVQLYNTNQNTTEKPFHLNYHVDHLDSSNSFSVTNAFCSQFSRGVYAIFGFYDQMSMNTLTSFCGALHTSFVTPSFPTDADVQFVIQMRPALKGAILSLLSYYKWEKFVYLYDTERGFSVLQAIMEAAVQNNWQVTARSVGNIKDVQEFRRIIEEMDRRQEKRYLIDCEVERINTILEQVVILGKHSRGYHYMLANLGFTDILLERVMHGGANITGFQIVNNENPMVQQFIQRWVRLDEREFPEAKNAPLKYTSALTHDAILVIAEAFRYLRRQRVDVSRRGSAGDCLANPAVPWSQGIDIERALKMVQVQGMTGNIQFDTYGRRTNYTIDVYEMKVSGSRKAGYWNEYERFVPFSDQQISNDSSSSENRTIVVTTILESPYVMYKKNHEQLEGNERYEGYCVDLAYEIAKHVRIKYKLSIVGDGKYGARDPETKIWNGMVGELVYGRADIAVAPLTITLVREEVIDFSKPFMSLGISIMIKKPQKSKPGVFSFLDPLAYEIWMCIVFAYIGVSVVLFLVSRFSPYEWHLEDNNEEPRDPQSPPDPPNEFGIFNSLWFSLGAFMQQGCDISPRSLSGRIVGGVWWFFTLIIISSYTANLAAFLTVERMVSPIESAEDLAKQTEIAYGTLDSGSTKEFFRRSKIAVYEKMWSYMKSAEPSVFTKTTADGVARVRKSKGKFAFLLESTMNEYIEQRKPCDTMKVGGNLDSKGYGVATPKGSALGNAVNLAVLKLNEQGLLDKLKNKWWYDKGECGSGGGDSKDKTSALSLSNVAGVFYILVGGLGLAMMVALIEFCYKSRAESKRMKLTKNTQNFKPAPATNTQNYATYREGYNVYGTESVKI

Structure (SMILES)	Ki [5] [µM]	Ki [6] [µM]	pKi [6]	Ki (Glutamate NMDA receptor) [µM]	also measured
N[C@H](Cc1cc(Cl)cc(-c2cccc(O)c2)c1)C(=O)O	–	–	–	–	Ki (Glutamate receptor 2 [1]): 20.7 µM; Ki (Glutamate receptor 3): > 100 µM
N[C@H](Cc1cc(-c2cc(O)ccc2O)c(Cl)c([N+](=O)[O-])c1)C(=O)O	–	–	–	–	Kb [2]: 2130 nM; inhibition [2]: Dose-dependent effect; Ki (Glutamate receptor 2 [1]): 1.71 µM; Ratio Ki (Rattus norvegicus): 4; Ki (Glutamate receptor 3): 7.01 µM; Activity [3]: inactive; Ki (Glutamate receptor 2 [4]): 1740 nM
N[C@H](Cc1ccc(Cl)c(-c2cccc(O)c2)c1)C(=O)O	–	–	–	–	Ki (Glutamate receptor 2 [1]): 21.9 µM; Ki (Glutamate receptor 3): > 100 µM
NC(Cc1cc(Cl)c(Cl)c(-c2cncc(O)c2)c1)C(=O)O (racemic)	> 100	–	–	–	–
N[C@@H](Cc1cc(-c2cc(O)ccc2O)c(Cl)c([N+](=O)[O-])c1)C(=O)O	–	–	–	–	Ki (Glutamate receptor 2 [1]): 18.4 µM; Ki (Glutamate receptor 3): > 100 µM
NC(Cc1cc(-c2ccc(O)cc2)cc([N+](=O)[O-])c1)C(=O)O (racemic)	> 100	21	4.68	> 100	–
N[C@@H](Cc1ccc(Cl)c(-c2cccc(O)c2)c1)C(=O)O	–	–	–	–	Ki (Glutamate receptor 2 [1]): > 100 µM; Ki (Glutamate receptor 3): > 100 µM
N[C@@H](Cc1cc(Cl)cc(-c2cccc(O)c2)c1)C(=O)O	–	–	–	–	Ki (Glutamate receptor 2 [1]): 40.8 µM; Ki (Glutamate receptor 3): > 100 µM
Nc1c(-c2cccc(O)c2)cc(CC(N)C(=O)O)cc1[N+](=O)[O-] (racemic)	> 100	14	4.84	> 100	–
NC(Cc1cc(-c2cncc(O)c2)c(Cl)c([N+](=O)[O-])c1)C(=O)O (racemic)	> 100	2	5.7	> 100	–
CC(C)(C)c1onc(OCP(=O)(O)O)c1C[C@H](N)C(=O)O	> 100	–	–	–	Ki [7]: 16 µM
NC(Cc1cc(-c2ccc(O)cc2)c(Cl)c([N+](=O)[O-])c1)C(=O)O (racemic)	> 100	23	4.66	> 100	–
NC(Cc1cc(-c2cc(O)ccc2O)c(Cl)c([N+](=O)[O-])c1)C(=O)O (racemic)	15	0.92	6.04	> 100	pKi [5]: 4.83
NC(Cc1ccc([N+](=O)[O-])c(-c2ccc(O)cc2)c1)C(=O)O (racemic)	> 100	64	4.2	> 100	–
NC(Cc1ccc([N+](=O)[O-])c(-c2cccc(O)c2)c1)C(=O)O (racemic)	> 100	21	4.67	> 100	–
NC(Cc1cc(-c2cc(O)cc(F)c2)c(Cl)c([N+](=O)[O-])c1)C(=O)O (racemic)	26	3.4	5.47	> 100	pKi [5]: 4.58
NC(Cc1ccc(Cl)c(-c2ccc(O)cc2)c1)C(=O)O (racemic)	> 100	65	4.19	> 100	–

Now from value to compound, other results behind:

Ki [5] [µM]	Ki [6] [µM]	pKi [6]	Ki (Glutamate NMDA receptor) [µM]	Structure (SMILES)	also measured
> 100	9.3	5.06	> 100	NC(Cc1cc(Cl)cc(-c2cccc(O)c2)c1)C(=O)O (racemic)	–
> 100	9.2	5.04	> 100	NC(Cc1ccc(Cl)c(-c2cccc(O)c2)c1)C(=O)O (racemic)	–
> 100	–	–	–	NC(Cc1cc(Cl)c(Cl)c(-c2cccc(O)c2)c1)C(=O)O (racemic)	–
> 100	> 100	–	> 100	COc1c(Cl)cc(CC(N)C(=O)O)cc1-c1cccc(O)c1 (racemic)	–
> 100	46	4.34	> 100	NC(Cc1cc(Cl)cc(-c2ccc(O)cc2)c1)C(=O)O (racemic)	–
> 100	10	4.99	> 100	Nc1c(Cl)cc(CC(N)C(=O)O)cc1-c1cccc(O)c1 (racemic)	–
> 100	9.1	5.05	> 100	Nc1ccc(CC(N)C(=O)O)cc1-c1cccc(O)c1 (racemic)	–
> 100	3.1	5.52	> 100	NC(Cc1cc(-c2cccc(O)c2)c(Cl)c([N+](=O)[O-])c1)C(=O)O (racemic)	–
> 100	8.2	5.09	> 100	NC(Cc1cc(-c2cccc(O)c2)cc([N+](=O)[O-])c1)C(=O)O (racemic)	–
> 100	7.9	5.1	> 100	NC(Cc1cc(Cl)c(O)c(-c2cccc(O)c2)c1)C(=O)O (racemic)	–
> 100	–	–	–	NC(Cc1cccc(-c2cccc(O)c2)c1)C(=O)O (racemic)	–
